According to patent US8501953B2, “PKM2 modulators for use in the treatment of cancer” (Agios Pharmaceuticals, Inc, priority 2009, dated 2013):

Each compound was assayed against PKM2 (Homo sapiens, UniProt P14618) (assay: PKM2 Assay (activation; LDH-coupled, NADH absorbance at 340 nm)). Conditions: PKM2 50 ng/well, ADP 0.7 mM, PEP 0.15 mM, no FBP in Reaction Mix.
Type: biochemical
Description: • PKM2 stock enzyme solution was diluted in Reaction Buffer • 2 μL of compound was added into each well first, and then 180 μL of the Reaction Mix was added. • Reaction mixture with compound (without ADP) were incubated for 30 minutes at 4° C. • Plates were re-equilibrated to room temperature prior to adding 20 μL ADP to initiate the reaction. • Reaction progress was measured as changes in absorbance at 340 nm wavelength at room temperature (25° C.) Reaction Mix: PKM2 (50 ng/well), ADP (0.7 mM), PEP (0.15 mM), NADH (180 μM), LDH (2 units) in Reaction Buffer Reaction Buffer: 100 mM KCl, 50 mM Tris pH 7.5, 5 mM MgCl2, 1 mM DTT, 0.03% BSA.

Sequence of PKM2 (P14618 whole entry): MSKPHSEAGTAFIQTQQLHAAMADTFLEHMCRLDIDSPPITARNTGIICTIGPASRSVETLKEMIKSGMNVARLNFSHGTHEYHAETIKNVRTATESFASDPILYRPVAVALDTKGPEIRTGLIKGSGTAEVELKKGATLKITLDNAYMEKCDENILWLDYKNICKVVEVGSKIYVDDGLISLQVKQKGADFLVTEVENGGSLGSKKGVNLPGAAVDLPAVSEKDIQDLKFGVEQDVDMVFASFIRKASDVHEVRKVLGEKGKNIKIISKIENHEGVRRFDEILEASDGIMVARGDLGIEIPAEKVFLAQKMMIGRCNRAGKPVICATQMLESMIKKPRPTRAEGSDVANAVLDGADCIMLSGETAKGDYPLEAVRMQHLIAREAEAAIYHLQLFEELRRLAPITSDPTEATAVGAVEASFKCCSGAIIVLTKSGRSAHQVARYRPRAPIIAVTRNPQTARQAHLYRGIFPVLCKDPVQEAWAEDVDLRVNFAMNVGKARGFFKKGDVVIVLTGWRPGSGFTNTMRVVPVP

`Cn1c(=O)oc2cc(S(=O)(=O)Nc3ccc(F)c(C(F)(F)F)c3)ccc21` and `Cc1cc(NS(=O)(=O)c2ccc3c(c2)oc(=O)n3C)ccc1Cl` cannot be ordered by AC50: < 1 µM for the first, < 1 µM for the second.

Compared with `O=c1sc2ccc(S(=O)(=O)Nc3ccc(Cl)cc3)cc2s1`, `COc1ccc(Cl)cc1NS(=O)(=O)c1ccc2sc(=O)sc2c1` is higher in AC50: 1 to 10 µM for the first, 10 to 50 µM for the second.

First: Cn1c(=O)sc2ccc(NS(=O)(=O)c3ccccc3)cc21
Second: Cn1c(=O)sc2cc(S(=O)(=O)Nc3ccc(F)cc3)ccc21
The AC50 of the first is higher: 10 to 50 µM for the first, < 1 µM for the second.

First: CCn1c(=O)oc2cc(Cl)c(S(=O)(=O)Nc3ccccc3Cl)cc21
Second: CCn1c(=O)oc2cc(Cl)c(S(=O)(=O)Nc3ccc(F)cc3)cc21
The AC50 of the first is higher: > 100 µM for the first, 10 to 50 µM for the second.

`Cc1cc2oc(=O)n(C)c2cc1S(=O)(=O)Nc1cc(F)cc(Cl)c1` and `Cc1cc2oc(=O)n(C)c2cc1S(=O)(=O)Nc1ccc(Cl)c(F)c1` fall in the same range of AC50: 1 to 10 µM for the first, 1 to 10 µM for the second.

`Cc1cc2oc(=O)n(C)c2cc1S(=O)(=O)Nc1ccccc1F` and `Cc1cc2oc(=O)n(C)c2cc1NS(=O)(=O)c1ccccc1C` fall in the same range of AC50: 1 to 10 µM for the first, 1 to 10 µM for the second.

First: Cc1cc(NS(=O)(=O)c2cc(CN3CCCCC3)c3c(c2)oc(=O)n3C)ccc1F
Second: Cc1cc(S(=O)(=O)Nc2ccc(F)c(Cl)c2)cc2oc(=O)n(CCN(C)C)c12
The AC50 of the first is higher: 1 to 10 µM for the first, < 1 µM for the second.

`Cc1cc2oc(=O)n(C)c2cc1S(=O)(=O)N1CCN(c2ccc(C(F)(F)F)cn2)CC1` and `Cc1cc2oc(=O)n(C)c2cc1S(=O)(=O)N1CCCN(c2ccc(C(F)(F)F)cn2)CC1` fall in the same range of AC50: 1 to 10 µM for the first, 1 to 10 µM for the second.

`COc1ccc(C)cc1S(=O)(=O)Nc1ccc(NS(=O)(=O)c2ccc3c(c2)oc(=O)n3C)cc1` and `Cn1c(=O)oc2cc(S(=O)(=O)Nc3ccc(Cl)cc3)ccc21` fall in the same range of AC50: 1 to 10 µM for the first, 1 to 10 µM for the second.

First: O=c1[nH]c2cc(NS(=O)(=O)c3cccs3)ccc2o1
Second: Cn1c(=O)oc2cc(F)c(NS(=O)(=O)c3cccs3)cc21
The AC50 of the first is lower: 10 to 50 µM for the first, > 100 µM for the second.

`Cc1cc2c(cc1S(=O)(=O)N1CCCN(c3ccc(C(F)(F)F)cn3)CC1)oc(=O)n2C` and `Cc1cc2oc(=O)n(C)c2cc1S(=O)(=O)Nc1ccc(OC(F)(F)F)c(Cl)c1` fall in the same range of AC50: 1 to 10 µM for the first, 1 to 10 µM for the second.

`Cc1cc2sc(=O)sc2cc1S(=O)(=O)Nc1ccccc1Cl` and `Cc1cc2sc(=O)sc2cc1S(=O)(=O)Nc1ccc(F)cc1` fall in the same range of AC50: 1 to 10 µM for the first, 1 to 10 µM for the second.

First: Cc1cc(C)cc(NS(=O)(=O)c2cc3oc(=O)n(C)c3cc2C)c1
Second: Cn1c(=O)oc2cc(S(=O)(=O)Nc3ccccc3Cl)ccc21
The AC50 of the first is lower: < 1 µM for the first, 1 to 10 µM for the second.

`COc1cccc(F)c1S(=O)(=O)N(C)c1ccc2sc(=O)n(C)c2c1` gave an AC50 of 10 to 50 µM.
